Experimental data taken from patent US11452781B2, “Method of preventing and treating type 1 diabetes, allograft rejection and lung fibrosis (by targeting the ATP/P2X7R axis)” (CHILDREN'S MEDICAL CENTER CORPORATION, priority 2013, dated 2022).
“Also recorded” adds a separate entry of the source.

Assays:
[1] = test system: A549 cells co-cultured with PBMCs; assay: Cytotoxicity of human PBMC upon IFN-γ stimulated A549 cells, 7 days co-culture; format: cell-based; settings: increasing doses of oATP
Protocol: FIG. 16A depicts a graph of CD8 activation levels. To better assess the response of CD8 T cells, splenocytes isolated from OT1 mice were stimulated with OVA peptide with and without (positive control) oATP (100 μM) and T cell proliferation determined. […] FIG. 16C depicts photomicroscopy images and a graph of cell growth and survival. Freshly isolated human peripheral blood mononuclear cells (PBMCs, 4×10^5/ml) were applied onto pre-seeded A549 cells (at ˜20% confluency). Cells were cultured in RPMI medium supplemented with interferon gamma (IFNγ) with or without oATP for 7 days. Shown are representative images of A549 cells, and A549 cells co-cultured with PBMCs in the presence and absence of 200 μM oATP. Images were taken on day 7 of the co-culture. […]
Outcome Measures—In vivo assessment of transplanted lung function was performed by thoracic CT scan imaging and measuring peak airway pressures (PawP) as previously described {Bizargity, #22}. ATP levels were measured from transplanted lung bronchoalveolar lavage fluid (BAL) by bioluminescent detection using Enliten ATP assay system (FF2000, Promega Corporation, Madison, Wis.). […] Immunohistochemistry was performed on frozen lung tissue sections utilizing CD4 and CD8 antibodies and isotype controls and assessed based on the average of 10 high power fields/lung allograft. […]

[2] = test system: C57BL/6 splenocytes; assay: Apoptosis of allo-challenged splenocytes (annexin V, FACS); settings: oATP, 24 h
Protocol: To confirm the data obtained in vivo, the effect of targeting P2X7R in vitro was evaluated using alloimmune-relevant assays. Responder splenocytes from C57BL/6 mice were challenged with irradiated stimulator splenocytes from BALB/c mice. The numbers of cells producing IFN-γ and IL-4 were evaluated in an ELISPOT assay in the presence of increasing concentrations of oATP.

[3] = test system: C57BL/6 mice transplanted with Bm12 left lung; assay: Allogeneic orthotopic left lung transplantation, Bm12 into C57BL/6; format: in vivo, mouse
Protocol: The effect of oATP treatment in a model of allogeneic orthotropic left lung transplantation (Bm12 into C57BL/6) was assessed. Graft rejection and tissue fibrosis occurs early after transplantation and it is complete by day 30. […] CT scan was also performed in untreated or oATP-treated mice. Radiological analysis confirmed the preserved alveolar space and thus the functional integrity of oATP-treated compared to untreated mice (FIG. 8). oATP treatment is a rescue therapy for lung rejection. In a complementary experiment, oATP was tested as a rescue therapy for lung rejection. Bm12 left lung was transplanted into C57BL/6 mice and oATP treatment was started at day 10 after transplantation (when graft infiltration and rejection are evident) and mice follow for 30 days.

[4] = test system: P2X7R−/− mice transplanted with BALB/c hearts; assay: Cardiac transplantation into P2X7R-/- mice; format: in vivo, mouse; settings: P2X7R−/− recipients
Text: oATP has been proposed to exert secondary immunomodulatory mechanisms, primarily related to the inhibition of the remaining P2XsR. To verify that the effect on the prevention of cardiac transplant rejection was predominantly due to P2X7R inhibition, the P2X7R−/− C57BL/6 mouse model was used. BALB/c hearts were transplanted into P2X7R−/− mice, and cardiac transplant survival was compared with that of wild-type recipients.

[5] = test system: islet allografts; assay: Islet allograft pathology, RT-PCR transcripts, insulin and glucagon content; format: in vivo, mouse
Protocol: The presence of […] was then analyzed in the graft infiltrate by quantification, via RT-PCR, by assessing intra-graft Tbet and Rorc mRNA expression.

[6] = test system: naïve CD4+ T-cells; assay: CFSE T-cell proliferation assay, anti-CD3-Ig/anti-CD28-Ig; format: cell-based, mouse; settings: 100 μM oATP, 4 days (96 hours)
Protocol: The effect of P2X7R targeting was tested by treatment with oATP during T-cell activation. […] Similarly, in a T-cell proliferation assay, CFSE-labeled naïve CD4^+ T-cells were stimulated for 4 days with 0.5 μg/ml anti-CD3-Ig and anti-CD28-Ig; treatment with 100 μM oATP diminished CD4^+ T-cell proliferation (FIG. 5B, right panel) compared to controls (FIG. 5B, left panel).
To address the mechanisms underlying P2X7R targeting mediated inhibition of cardiac transplant rejection, the inventors analyzed the effect of P2X7R targeting on T-cell activation and Th1/Th17 differentiation in vitro. […] The effect of in vitro P2X7R targeting with oATP during CD4+ T-cell activation was tested. […] Second, in a T-cell proliferation assay, carboxyfluorescein diacetate succinimidyl ester-labeled naïve CD4+ T cells were stimulated for 96 hours with 0.5 μg/mL anti-CD3-Ig and anti-CD28-Ig, and treatment with 100 μM oATP diminished CD4+ T cell proliferation in comparison with controls. […] P2X7R targeting with oATP inhibited Th0 conversion into both Th1 and Th17, as assessed by the percentage of IFN-γ+ and IL-17+ cells, respectively. […] In a Th1/Th17 generation assay, pmY-P2X7R CD4+ T cells seemed to display increased differentiation capacity in comparison with pmY-mock CD4+ T cells, as assessed by T-bet and ROR-γ expression.

[7] = test system: mouse CD8 T cells; assay: Isolated CD8 T cells stimulated with anti-CD3, TNF-α, IFN-γ and granzyme B expression; format: cell-based; settings: anti-CD3 10 μg/ml

periodate-oxidized ATP [oATP]
cytolytic activity of PBMC on A549 cells [1]: remarkable reduction
percentage of apoptotic cells (annexin V+) [2]: no increase
lung function (PawP, compliance) after rescue therapy ([3]; oATP started at day 10): Better functional preservation of lung compliance
radiological and histological analysis after rescue therapy ([3]; oATP started at day 10, followed for 30 days): reversal of graft rejection and no signs of fibrosis; also recorded: preservation of alveolar space
graft fibrosis, inflammation and alveolar spaces ([3]; treatment from transplantation): prevents graft fibrosis; also recorded: highly reduced inflammation and preserved alveolar spaces
ability to prolong cardiac transplant survival [4]: severely altered
islet structure, insulin and glucagon staining ([5]; day 14 (oATP), long-term (oATP+rapamycin)): preserved insulin staining; also recorded: maintained
reduction of Tbet mRNA expression vs untreated ([5]; day 14, n=3): threefold decrease
CD4+ T-cell proliferation [6]: diminished; also recorded: suppressed
expression of TNF-α, IFN-γ and granzyme B [7]: reduction; also recorded: impaired activation
